Laboratory results reported in paper PMC10326885, “Design of Heme Enzymes with a Tunable Substrate Binding Pocket Adjacent to an Open Metal Coordination Site” (Journal of the American Chemical Society, 2023).

Biological target: T1, dnHEM1 (synthetic construct, UniProt Z9V042XZY6)
T1 construct: de novo alpha-helical closed solenoid (toroid) from designed scaffold PDB 4YXX, redesigned with Rosetta, surface desymmetrized by K29W and K165Y (already part of dnHEM1); expressed in E. coli; monomer
T1 sequence (Z9V042XZY6 1-210): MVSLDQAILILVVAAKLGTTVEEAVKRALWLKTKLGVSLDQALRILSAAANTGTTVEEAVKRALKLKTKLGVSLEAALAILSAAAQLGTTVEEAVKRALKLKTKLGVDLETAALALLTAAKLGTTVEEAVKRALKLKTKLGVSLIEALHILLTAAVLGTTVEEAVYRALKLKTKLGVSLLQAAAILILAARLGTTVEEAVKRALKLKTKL
Experiment: UV/Vis titration of hemin into apo-protein, absorbance at […] nm
Assay type: binding

Q: For `C=CC1=C(C)C2=Cc3c(C=C)c(C)c4[n]3[Fe]([Cl])[n]3c(c(C)c(CCC(=O)O)c3=CC3=NC(=C4)C(C)=C3CCC(=O)O)=CC1=N2` [hemin], which Kd is on record?
A: 2.5 ± 1.2 nM
